In ChEMBL document CHEMBL1201862, “PubChem BioAssay data set” (2004):
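Exposure lasted 48 hours, with cells grown in 96-well plates and compounds tested at five concentrations. At the GI50, growth is halved.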 Active and inactive are the calls of the source. Cut-off read from the data, not from the text of the source: active = GI50 up to about 1.1 µM and inactive = higher.

Assays:
Assay in all cases: inhibition of tumour cell growth, NCI panel, 48 h
LOX IMVI = test system: LOX IMVI
NCI-H226 = test system: NCI-H226
KM12 = test system: KM12
OVCAR-8 = test system: OVCAR-8
ACHN = test system: ACHN
RXF 393 = test system: RXF 393
HCC 2998 = test system: HCC 2998
NCI-H522 = test system: NCI-H522
NCI-H460 = test system: NCI-H460
UACC-257 = test system: UACC-257
COLO 205 = test system: COLO 205
HCT-15 = test system: HCT-15
UACC-62 = test system: UACC-62
OVCAR-5 = test system: OVCAR-5
SK-MEL-5 = test system: SK-MEL-5
CAKI-1 = test system: CAKI-1
HT-29 = test system: HT-29
SK-MEL-2 = test system: SK-MEL-2
A498 = test system: A498

Structure (SMILES)	GI50 (LOX IMVI)	GI50 (NCI-H226)	GI50 (KM12)	GI50 (OVCAR-8)	GI50 (ACHN)	GI50 (RXF 393)	GI50 (HCC 2998)	GI50 (NCI-H522)	GI50 (NCI-H460)	GI50 (UACC-257)	GI50 (COLO 205)	GI50 (HCT-15)	GI50 (UACC-62)	GI50 (OVCAR-5)	GI50 (SK-MEL-5)	GI50 (CAKI-1)	GI50 (HT-29)	GI50 (SK-MEL-2)	GI50 (A498)
CCCCCCCCCCCCCCCCNc1cccc2ccccc12	> 100 µM (inactive)	> 100 µM (inactive)	> 100 µM (inactive)	> 100 µM (inactive)	> 100 µM (inactive)	> 100 µM (inactive)	> 100 µM (inactive)	> 100 µM (inactive)	> 100 µM (inactive)	> 100 µM (inactive)	> 100 µM (inactive)	> 100 µM	> 100 µM (inactive)						
NNc1cnn(-c2ccccc2)c(=O)c1Cl	> 100 µM (inactive)	> 100 µM (inactive)	> 100 µM (inactive)	> 100 µM (inactive)	> 100 µM (inactive)	> 100 µM (inactive)		> 100 µM (inactive)	> 100 µM (inactive)	> 100 µM (inactive)	> 100 µM (inactive)	> 100 µM	> 100 µM (inactive)	> 100 µM (inactive)	> 100 µM (inactive)	> 100 µM (inactive)	> 100 µM (inactive)	> 100 µM (inactive)	> 100 µM (inactive)
O=C(Nc1ccc(Cl)cc1Cl)C1C(=O)N(c2ccc(Cl)cc2Cl)C(=O)/C1=N\Nc1ccc([N+](=O)[O-])cc1[N+](=O)[O-] (stereo not given)		39.6 µM (inactive)	34.5 µM (inactive)	60.8 µM (inactive)	74.5 µM (inactive)		37.6 µM (inactive)	21.5 µM (inactive)	59.8 µM (inactive)	29.4 µM (inactive)	52.5 µM (inactive)	9.82 µM	15.8 µM (inactive)	44.5 µM (inactive)	79.8 µM (inactive)	54.5 µM (inactive)	35.8 µM (inactive)	42.9 µM (inactive)	47.5 µM (inactive)
NC(=O)N=C(NCc1ccccc1)NCc1ccccc1	> 100 µM (inactive)		> 100 µM (inactive)	> 100 µM (inactive)	> 100 µM (inactive)		> 100 µM (inactive)	> 100 µM (inactive)	> 100 µM (inactive)	> 100 µM (inactive)	> 100 µM (inactive)	> 100 µM	> 100 µM (inactive)		> 100 µM (inactive)	> 100 µM (inactive)	> 100 µM (inactive)	> 100 µM (inactive)	
CC(=O)N/C(=C\c1ccc(/C=C(\NC(C)=O)c2nc3cc(Cl)ccc3[nH]2)cc1)c1nc2ccccc2[nH]1		> 100 µM (inactive)	> 100 µM (inactive)	> 100 µM (inactive)	> 100 µM (inactive)			> 100 µM (inactive)	> 100 µM (inactive)		> 100 µM (inactive)	> 100 µM	> 100 µM (inactive)	> 100 µM (inactive)	> 100 µM (inactive)	> 100 µM (inactive)	> 100 µM (inactive)	> 100 µM (inactive)	> 100 µM (inactive)
Clc1cccc(C2N3CCCCC3[C@@H]3c4[nH]c5ccccc5c4CCN23)c1 (stereo not given in full)				41.4 µM (inactive)	24.2 µM (inactive)	27 µM (inactive)	31.9 µM (inactive)		22.7 µM (inactive)	30.5 µM (inactive)		48.2 µM	15.6 µM (inactive)	21 µM (inactive)	18 µM (inactive)	45 µM (inactive)	18.2 µM (inactive)	19.8 µM (inactive)	31.2 µM (inactive)
O=C(/C=N/O)Nc1ccc(Cl)c(I)c1	11.1 µM (inactive)	0.0445 µM (active)	20.6 µM (inactive)	28.9 µM (inactive)	16.7 µM (inactive)	16.8 µM (inactive)	14.1 µM (inactive)	14.7 µM (inactive)	21.6 µM (inactive)	28.6 µM (inactive)	13.6 µM (inactive)	14.4 µM	10.2 µM (inactive)	21.6 µM (inactive)	18.4 µM (inactive)	14.3 µM (inactive)	33.3 µM (inactive)	15.7 µM (inactive)	
OC1=CN=C(C2CC2)Oc2ccccc21	> 100 µM (inactive)	15.5 µM (inactive)	> 100 µM (inactive)	> 100 µM (inactive)	> 100 µM (inactive)	> 100 µM (inactive)	> 100 µM (inactive)		> 100 µM (inactive)	> 100 µM (inactive)	> 100 µM (inactive)	> 100 µM	98.6 µM (inactive)		> 100 µM (inactive)		> 100 µM (inactive)	> 100 µM (inactive)	> 100 µM (inactive)
Cc1ccc(NC(=O)CCc2nnc(S)[nH]2)cc1		> 100 µM (inactive)	> 100 µM (inactive)	> 100 µM (inactive)	> 100 µM (inactive)			> 100 µM (inactive)	> 100 µM (inactive)	> 100 µM (inactive)	> 100 µM (inactive)	76 µM	17 µM (inactive)	> 100 µM (inactive)	> 100 µM (inactive)	> 100 µM (inactive)	> 100 µM (inactive)	> 100 µM (inactive)	> 100 µM (inactive)
CN(C)CC(C)(C)C(/C=C/c1ccccc1)=N\Nc1ccccc1	0.296 µM (active)		0.579 µM (active)	12.8 µM (inactive)	0.132 µM (active)	18 µM (inactive)		6.14 µM (inactive)	0.659 µM (active)	10.3 µM (inactive)	3.19 µM (inactive)	0.309 µM	0.0527 µM (active)	0.31 µM (active)	6.64 µM (inactive)		11 µM (inactive)	3.6 µM (inactive)	21.8 µM (inactive)
O=C(O)C(Cc1ccccc1)N1C(=O)N/C(=C\c2ccc(F)cc2)C1=O (stereo not given)	> 100 µM (inactive)	> 100 µM (inactive)	> 100 µM (inactive)	> 100 µM (inactive)	> 100 µM (inactive)	> 100 µM (inactive)	> 100 µM (inactive)	> 100 µM (inactive)	> 100 µM (inactive)	> 100 µM (inactive)	> 100 µM (inactive)	> 100 µM	36.7 µM (inactive)	> 100 µM (inactive)	> 100 µM (inactive)	> 100 µM (inactive)	> 100 µM (inactive)	> 100 µM (inactive)	
CC1OC(=O)N2CCC=CC12 (stereo not given)	> 100 µM (inactive)	> 100 µM (inactive)	> 100 µM (inactive)	> 100 µM (inactive)	> 100 µM (inactive)	> 100 µM (inactive)		> 100 µM (inactive)	> 100 µM (inactive)	> 100 µM (inactive)	> 100 µM (inactive)	> 100 µM	> 100 µM (inactive)	> 100 µM (inactive)	> 100 µM (inactive)		> 100 µM (inactive)	> 100 µM (inactive)	> 100 µM (inactive)
COC(=O)C1C2C=CC(C2)N1[C@@H](C)c1ccccc1 (stereo not given in full)	> 100 µM (inactive)		> 100 µM (inactive)	> 100 µM (inactive)	> 100 µM (inactive)		> 100 µM (inactive)	> 100 µM (inactive)	> 100 µM (inactive)	> 100 µM (inactive)	> 100 µM (inactive)	> 100 µM	> 100 µM (inactive)	> 100 µM (inactive)	> 100 µM (inactive)	> 100 µM (inactive)	> 100 µM (inactive)	> 100 µM (inactive)	> 100 µM (inactive)
